How the values were obtained:
SOS1 protein [1] = biological target: T1, SOS1 protein (Homo sapiens, UniProt Q07889); experiment: SOS1 degradation assay (Western blot), DLD-1 cells; type: cell-based; design: host or cells: DLD-1 (human cancer cell lines); conditions: 24 h; for DC50: read-out: DLD-1 (G13D) DC50; for Dmax: read-out: DLD-1 (G13D) Dmax
T1 sequence (Q07889 1-1333): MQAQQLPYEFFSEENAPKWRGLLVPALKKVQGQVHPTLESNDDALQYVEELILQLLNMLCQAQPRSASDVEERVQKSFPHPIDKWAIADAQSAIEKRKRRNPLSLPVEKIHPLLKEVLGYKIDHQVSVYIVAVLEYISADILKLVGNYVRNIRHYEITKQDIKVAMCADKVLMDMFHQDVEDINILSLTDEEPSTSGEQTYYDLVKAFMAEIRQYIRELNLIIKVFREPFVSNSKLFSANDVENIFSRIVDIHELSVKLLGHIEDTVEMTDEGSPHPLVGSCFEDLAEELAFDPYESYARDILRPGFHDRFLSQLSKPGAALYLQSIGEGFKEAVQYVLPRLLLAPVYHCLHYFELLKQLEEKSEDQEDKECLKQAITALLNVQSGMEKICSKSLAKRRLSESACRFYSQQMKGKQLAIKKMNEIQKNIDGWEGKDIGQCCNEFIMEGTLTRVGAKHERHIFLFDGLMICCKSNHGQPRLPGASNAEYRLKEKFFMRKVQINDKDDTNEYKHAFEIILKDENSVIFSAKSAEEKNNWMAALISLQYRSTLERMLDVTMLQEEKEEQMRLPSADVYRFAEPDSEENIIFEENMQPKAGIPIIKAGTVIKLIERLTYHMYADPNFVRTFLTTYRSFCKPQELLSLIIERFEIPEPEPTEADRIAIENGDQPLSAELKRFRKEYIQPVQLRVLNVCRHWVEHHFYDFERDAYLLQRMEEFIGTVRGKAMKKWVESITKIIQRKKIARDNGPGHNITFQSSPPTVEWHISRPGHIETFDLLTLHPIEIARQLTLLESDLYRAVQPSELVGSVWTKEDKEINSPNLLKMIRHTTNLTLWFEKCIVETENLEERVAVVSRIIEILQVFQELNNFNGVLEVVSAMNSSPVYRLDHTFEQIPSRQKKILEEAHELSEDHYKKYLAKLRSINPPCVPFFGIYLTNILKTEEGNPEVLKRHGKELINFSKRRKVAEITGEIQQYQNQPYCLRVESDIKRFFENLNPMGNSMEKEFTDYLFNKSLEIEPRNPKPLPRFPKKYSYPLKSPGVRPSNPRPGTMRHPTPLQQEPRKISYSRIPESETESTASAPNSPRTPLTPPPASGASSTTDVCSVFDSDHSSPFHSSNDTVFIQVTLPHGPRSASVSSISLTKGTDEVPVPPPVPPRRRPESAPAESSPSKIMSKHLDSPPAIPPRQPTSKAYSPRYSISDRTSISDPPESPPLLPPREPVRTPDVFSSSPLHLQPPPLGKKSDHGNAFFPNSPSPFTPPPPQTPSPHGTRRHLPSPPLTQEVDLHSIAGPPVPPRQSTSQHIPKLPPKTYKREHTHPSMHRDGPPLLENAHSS
Procedure: (§1) The specific procedures were as follows:
(§2) 0.95 mL of cells were seeded into each well of a 24-well cell culture plate to achieve a cell density of 5×10^5 cells/well; the cell plate was incubated in an incubator at 37° C. with 5% CO2 overnight. Then 50 μL of the compound solution after dilution was added to each of the wells with the corresponding cells, so that the final concentration of the compound was in a range of 0.03-3000 nM. […] After dosing, the cell plate was incubated in an incubator at 37° C. with 5% CO2 for 24 h. […] After the plate was left to stand on ice for 30 min, the protein lysate in each well was transferred to a 1.5 mL centrifuge tube and centrifuged at 15000 g for 20 min at 4° C. The cell lysate supernatant after centrifugation was cryopreserved at −80° C. for testing and was used for determining the degradation level of the SOS1 protein by a WB method. The concentration of total protein in the cell lysate supernatant was determined using the BCA Protein Quantification Kit (Tiangen, PA115-02).
(§3) The concentration of total protein in the cell lysate was determined by BCA. The total protein was adjusted to 0.5 μg/μL with PBS and 5× SDS-PAGE protein loading buffer (Beyotime, P0015L), incubated in a water bath at 100° C. for 15 min, incubated in an ice bath on ice for 5 min, centrifuged at 14000 g for 1 min at 4° C., and mixed well as a loading sample for WB. Protein electrophoresis was performed on a precast gel (KeyGEN, KGMGO10W15) with a loading volume of 10 μL (total protein: 5 μg) using a Tris-MOPS-SDS running solution (Adamas, P1598253) at a constant voltage of 120 V for 55 min. After the electrophoresis, the protein on the gel strip was transferred to a PVDF membrane at a constant current of 250 mA for 65 min. After the membrane transfer, the membrane was incubated in 1× QuickBlock blocking buffer (Beyotime, P0235) for 30 min at room temperature. […] The protein map was subjected to gray value analysis by the chemiluminescence imaging system from Clinx. […] Then the degradation rate was calculated by comparing the gray correction value with the gray correction value of the control group. Then nonlinear curve fitting was performed by GraphPad Prism 8 in the logarithmic concentration-inhibition rate to obtain the DC50 and Dmax values of the compounds.

SOS1 protein [2] = biological target: T1, SOS1 protein; experiment: SOS1 degradation assay (Western blot), SW-620 cells; type: cell-based; design: host or cells: SW-620 (human cancer cell lines); conditions: 24 h; for DC50: read-out: SW620 (G12V) DC50; for Dmax: read-out: SW620 (G12V) Dmax
Procedure: as §1, §2, §3

**Q.** With `COc1cc2nc(C)nc(N[C@H](C)c3cc(N)cc(C(F)(F)F)c3)c2cc1[C@H]1CC[C@H](C(=O)N2CCN(CCC3CCC4(CC3)CCN(C(=O)c3ccc(Cl)c(N5CCC(=O)NC5=O)c3)CC4)CC2)CC1` [Example 1, 1-(5-(9-(2-(4-((1R,4R)-4-(4-(((R)-1-(3-amino-5-(trifluoromethyl)phenyl)ethyl)amino)-7-methoxy-2-methylquinazolin-6-yl)cyclohexane-1-carbonyl)piperazin-1-yl)ethyl)-3-azaspiro[5.5]undecane-3-carbonyl)-2-chlorophenyl)dihydropyrimidine-2,4(1H,3H)-dione] as the compound, how does the DC50 (SOS1 protein [1]) read?
**A.** Its DC50 is less than 0.05 µM.

**Q.** What about the Dmax (SOS1 protein [1]) of the same compound?
**A.** Its Dmax is 80 to 100%.

**Q.** What about the DC50 (SOS1 protein [2]) of the same compound?
**A.** Its DC50 is less than 0.05 µM.

**Q.** What about the Dmax (SOS1 protein [2]) of the same compound?
**A.** Its Dmax is 80 to 100%.

**Q.** For `COc1cc2nc(C)nc(N[C@H](C)c3cc(N)cc(C(F)(F)F)c3)c2cc1[C@H]1CC[C@H](C(=O)N2CCN(CC3CCC4(CC3)CCN(C(=O)c3ccc(Cl)c(N5CCC(=O)NC5=O)c3)CC4)CC2)CC1` [Example 2, 1-(5-(9-((4-((1R,4R)-4-(4-(((R)-1-(3-amino-5-(trifluoromethyl)phenyl)ethyl)amino)-7-methoxy-2-methylquinazolin-6-yl)cyclohexane-1-carbonyl)piperazin-1-yl)methyl)-3-azaspiro[5.5]undecane-3-carbonyl)-2-chlorophenyl)dihydropyrimidine-2,4(1H,3H)-dione], which DC50 (SOS1 protein [1]) is on record?
**A.** The DC50 was less than 0.05 µM.

**Q.** And the Dmax (SOS1 protein [1])?
**A.** Its Dmax is 80 to 100%.

**Q.** And the DC50 (SOS1 protein [2])?
**A.** Its DC50 is less than 0.05 µM.

**Q.** And the Dmax (SOS1 protein [2])?
**A.** Its Dmax is 80 to 100%.

**Q.** Which DC50 (SOS1 protein [1]) does the source give for `COc1cc2nc(C)nc(N[C@H](C)c3cccc4c3CCS4(=O)=O)c2cc1[C@H]1CC[C@H](C(=O)N2CCN(CC3CCC4(CC3)CCN(C(=O)c3ccc(Cl)c(N5CCC(=O)NC5=O)c3)CC4)CC2)CC1` [Example 10, 1-(2-chloro-5-(9-((4-((1R,4R)-4-(4-(((R)-1-(1,1-dioxo-2,3-dihydrobenzo[b]thiophen-4-yl)ethyl)amino)-7-methoxy-2-methylquinazolin-6-yl)cyclohexane-1-carbonyl)piperazin-1-yl)methyl)-3-azaspiro[5.5]undecane-3-carbonyl)phenyl)dihydropyrimidine-2,4(1H,3H)-dione] here?
**A.** Its DC50 is less than 0.05 µM.

**Q.** What about the Dmax (SOS1 protein [1]) of the same compound?
**A.** Its Dmax is 80 to 100%.

**Q.** And the DC50 (SOS1 protein [2])?
**A.** Its DC50 is less than 0.05 µM.

**Q.** And the Dmax (SOS1 protein [2])?
**A.** Its Dmax is 80 to 100%.

**Q.** With `COc1cc2nc(C)nc(N[C@H](C)c3cc(N)cc(C(F)(F)F)c3)c2cc1[C@H]1CC[C@H](C(=O)N2CCC(CCOCC3CCN(C(=O)c4ccc(Cl)c(N5CCC(=O)NC5=O)c4)CC3)CC2)CC1` [Example 19, 1-(5-(4-((2-(1-((1R,4R)-4-(4-(((R)-1-(3-amino-5-(trifluoromethyl)phenyl)ethyl)amino)-7-methoxy-2-methylquinazolin-6-yl)cyclohexane-1-carbonyl)piperidin-4-yl)ethoxy)methyl)piperidine-1-carbonyl)-2-chlorophenyl)dihydropyrimidine-2,4(1H,3H)-dione] as the compound, how does the DC50 (SOS1 protein [1]) read?
**A.** Its DC50 is 0.05 to 0.1 µM.

**Q.** And the Dmax (SOS1 protein [1])?
**A.** Its Dmax is 80 to 100%.

**Q.** What about the DC50 (SOS1 protein [2]) of the same compound?
**A.** Its DC50 is less than 0.05 µM.

**Q.** And the Dmax (SOS1 protein [2])?
**A.** Its Dmax is 80 to 100%.

**Q.** Which DC50 (SOS1 protein [1]) does the source give for `COc1cc2nc(C)nc(N[C@H](C)c3cc(N)cc(C(F)(F)F)c3)c2cc1[C@H]1CC[C@H](C(=O)N2CCN(CCOCC3CCN(C(=O)c4ccc(Cl)c(N5CCC(=O)NC5=O)c4)CC3)CC2)CC1` [Example 33, 1-(5-(4-((2-(4-((1R,4R)-4-(4-(((R)-1-(3-amino-5-(trifluoromethyl)phenyl)ethyl)amino)-7-methoxy-2-methylquinazolin-6-yl)cyclohexane-1-carbonyl)piperazin-1-yl)ethoxy)methyl)piperidine-1-carbonyl)-2-chlorophenyl)dihydropyrimidine-2,4(1H,3H)-dione] here?
**A.** The DC50 was 0.1 to 0.5 µM.

**Q.** What about the Dmax (SOS1 protein [1]) of the same compound?
**A.** Its Dmax is 80 to 100%.

**Q.** And the DC50 (SOS1 protein [2])?
**A.** The DC50 was less than 0.05 µM.

**Q.** What about the Dmax (SOS1 protein [2]) of the same compound?
**A.** The Dmax was 80 to 100%.

**Q.** What does the source list for `CNCc1ccccc1-c1csc([C@@H](C)Nc2nc(C)nc3cc(OC)c([C@H]4CC[C@H](C(=O)N5CCN(CC6CCC7(CC6)CCN(C(=O)c6ccc(OC)c(N8CCC(=O)NC8=O)c6)CC7)CC5)CC4)cc23)c1` [Example 73, 1-(2-methoxy-5-(9-((4-((1R,4R)-4-(7-methoxy-2-methyl-4-(((R)-1-(4-(2-((methylamino)methyl)phenyl)thien-2-yl)ethyl)amino)quinazolin-6-yl)cyclohexane-1-carbonyl)piperazin-1-yl)methyl)-3-azaspiro[5.5]undecane-3-carbonyl)phenyl)dihydropyrimidine-2,4(1H,3H)-dione]?
**A.** DC50 (SOS1 protein [1]): 0.05 to 0.1 µM; Dmax (SOS1 protein [1]): 80 to 100%; DC50 (SOS1 protein [2]): < 0.05 µM; Dmax (SOS1 protein [2]): 80 to 100%

Source: US20240261417A1, “SOS1 DEGRADING AGENT AND PREPARATION METHOD THEREFOR AND APPLICATION THEREOF” (SHANGHAI LEADINGTAC PHARMACEUTICAL CO. LTD., priority 2021, published 2024)
